The values that follow come from article PMC5045831 (Drugs in R&D, 2016).

The format of data set [1] is in vivo, human.
For data set [2] the following is noted: cited from earlier work.
A short description of data set [3]: Evaluation of safety. The format is in vivo, human. Particulars: single oral 50 mg with water, lemon or Seville orange juice; nine subjects.
For data set [4] the following is noted: cited from earlier work. This is another data set of the same source.
For data set [5] the following is noted: cited from earlier work. This is another data set of the same source.
The mark [6] stands for this setting: Seville orange juice compared with water.
Where [7] appears, read: Seville orange juice, healthy volunteers.

Where two headings read alike, the source gives them in different places.

As for `CCCc1nn(C)c2c(=O)[nH]c(-c3cc(S(=O)(=O)N4CCN(C)CC4)ccc3OCC)nc12` [sildenafil], in data set [1] (setting [6]), the “change in Tmax” value was “non-significant changes”, the “increase in AUC0–∞” value was 44%, the “increase in Cmax” value is 8% and the “reduction of apparent oral clearance (CL/F)” value was 30%. Further, in data set [1] (male, human, plasma, po, 50 mg), the Tmax was roughly 1 h. Besides, the change in bioavailability entry in data set [2] (co-administration of ciprofloxacin and clarithromycin) was “significantly increases”. Besides, the “increase in bioavailability and AUC” value in data set [2] (with grapefruit juice, Cmax unaffected) is recorded as 23%. The adverse effects reported entry in data set [3] is “without reporting any adverse effect”.

As for `CCOC(=O)C1=C(C)NC(C)=C(C(=O)OC)C1c1cccc(Cl)c1Cl` (centres unmarked) [felopdipine], the “increase in AUC” value in data set [4] (with Seville orange) is 93%; in data set [4] (with grapefruit), 76%.

Take `COc1ccc2c(c1)[C@]13CCCC[C@@H]1[C@H](C2)N(C)CC3` [dextromethorphan]: the change in bioavailability entry in data set [5] (with Seville orange juice, effects lasted 3 days) is reported as “increased significantly”.

As for `COc1cc2c(c(OC)c1OC)-c1ccc(OC)c(=O)cc1[C@@H](NC(C)=O)CC2` [colchicine], in data set [5] (setting [7]), the “decrease in AUC” value is 20%, the “decrease in Cmax” value is listed as 24% and the “delay in Tmax” value is listed as 1 h.
